The subject of the test is U937. Description: Adhesion and cytotoxic assay (CAM-DR protocol, fibronectin), cell viability. The format is cell-based. The following applies: in vitro, adherent U937 (not shown). An excerpt: Fresh AML cells were obtained from bone marrow of patients upon informed consent, using Ficoll-Hypaque density-gradient centrifugation. […] For in vitro experiments, blasts were resuspended in IMDM. All patients were diagnosed according to WHO classification at the Hematology Department of Toulouse University Hospital (France). Normal bone marrow CD34+ and CD34- hematopoietic cells were harvested from healthy volunteers upon informed consent and obtained after positive selection of CD34-expressing cells by the means of immunomagnetic separation column (Miltenyi Biotech, Bergisch Gladbach, Germany). Fresh blood samples were collected from healthy adult donors and PBMC (Peripheral Blood Mononuclear Cells) were prepared on a Ficoll-Paque density gradient by centrifugation (800 g, 30 min at room temperature).
Adhesion assays were performed in 96-well plates coated overnight at 4°C with 40 µg/mL of human fibronectin (Roche Molecular Biochemicals, Mannheim, Germany) in a final volume of 50 µL in PBS. Each well was blocked with 1% fatty acid-free BSA in PBS, 1 h at room temperature and washed with PBS before seeding the cells. Cells were diluted at 3x10^5/mL overnight and then were serum starved for 1 h at 1x10^6/mL, incubated or not with plant extract/fraction and purified alkaloid or flavonoid compounds. Control assays were treated with corresponding solvents (water, water/ethanol, DMSO) at a 1/100 dilution. Cells were then allowed to adhere on fibronectin (10^5 cells/well) for 1 h at 37°C or maintained in suspension. In some experiments, both cells in suspension and adherent were treated with 0.5 µM daunorubicin (DNR) (Laboratoire Roger Bellon, Neuilly-sur-Seine, France) for 1 h at 37°C. At the end of the incubation period, cells were washed and incubated in serum containing medium for 24 h at 37°C. Cell viability was then quantified by methyl thiazolyl tetrazolium (MTT) assay (Sigma) or by the Annexin V-FITC detection kit from BD PharMingen. Experiments were performed in triplicate and results were evaluated as the percentage of surviving cells compared to the control group.
Aqueous extracts were prepared from dried H. scoparia leaves and serial dilutions were assayed for cytotoxicity over leukemic cells either in suspension or in adhesion following CAM-DR protocol.
Take `NCC(O)c1ccc(O)cc1` (stereo not shown) [norsynephrine]: the “specific proapoptotic effect on adherent U937 cells” value (from here on “specific proapoptotic effect”) is listed as “none of these compounds displayed a specific proapoptotic effect”.

Turning to `COc1cc(O)c2c(=O)c(O)c(-c3ccc(O)c(O)c3)oc2c1` [rhamnetin], the “specific proapoptotic effect” value is listed as “none of these compounds displayed a specific proapoptotic effect”.

With `NCCc1c[nH]c2ccccc12` [tryptamine], the “specific proapoptotic effect” value was “none of these compounds displayed a specific proapoptotic effect”.

In the case of N-methylisosalsoline, the “specific proapoptotic effect” value is recorded as “none of these compounds displayed a specific proapoptotic effect”.

Source of the values: patent EP2119434A1, “Use of heterosidic flavonoid derivatives for therapy of stem cell cancers” (INSTITUT NATIONAL DE LA SANTE ET DE LA RECHERCHE MEDICALE …, priority 2008, dated 2009).
